Laboratory results reported in ChEMBL document CHEMBL3045516, “Field study of the relative susceptibility of eleven potato (Solanum tuberosum L.) varieties and the efficacy of two fungicides against Rhizoctonia solani attack” (2010).

How the values were obtained:
Assay type in all cases: functional
[1] = tested on: Rhizoctonia solani; experiment: Fungicidal activity against Rhizoctonia solani assessed as level-1 black scurf infected potato Nicola progeny tubers using 25% active ingredient containing compound treated potato seeds under field trial conditions (reference value: 0.0%)
[2] = tested on: Rhizoctonia solani; experiment: Fungicidal activity against Rhizoctonia solani assessed as level-3 black scurf infected potato Nicola progeny tubers using 25% active ingredient containing compound treated potato seeds under field trial conditions (reference value: 22.4%)
[3] = tested on: Rhizoctonia solani; experiment: Fungicidal activity against Rhizoctonia solani assessed as level-4 black scurf infected potato Nicola progeny tubers using 25% active ingredient containing compound treated potato seeds under field trial conditions (reference value: 59.7%)
[4] = tested on: Rhizoctonia solani; experiment: Fungicidal activity against Rhizoctonia solani assessed as level-2 black scurf infected potato Nicola progeny tubers using 25% active ingredient containing compound treated potato seeds under field trial conditions (reference value: 17.9%)
[5] = tested on: Rhizoctonia solani; experiment: Fungicidal activity against Rhizoctonia solani assessed as level-3 black scurf infected potato Nicola progeny tubers using in-furrow application of 25% active ingredient containing compound under field trial conditions (reference value: 22.4%)
[6] = tested on: Rhizoctonia solani; experiment: Fungicidal activity against Rhizoctonia solani assessed as level-1 black scurf infected potato Nicola progeny tubers using 25% active ingredient containing compound treated potato seeds and in-furrow compound application under field trial conditions (reference value: 0.0%)
[7] = tested on: Rhizoctonia solani; experiment: Fungicidal activity against Rhizoctonia solani assessed as level-1 black scurf infected potato Nicola progeny tubers using in-furrow application of 25% active ingredient containing compound under field trial conditions (reference value: 0.0%)
[8] = tested on: Rhizoctonia solani; experiment: Fungicidal activity against Rhizoctonia solani assessed as level-4 black scurf infected potato Nicola progeny tubers using in-furrow application of 25% active ingredient containing compound under field trial conditions (reference value: 59.7%)
[9] = tested on: Rhizoctonia solani; experiment: Fungicidal activity against Rhizoctonia solani assessed as level-3 black scurf infected potato Nicola progeny tubers using 25% active ingredient containing compound treated potato seeds and in-furrow compound application under field trial conditions (reference value: 22.4%)
[10] = tested on: Rhizoctonia solani; experiment: Fungicidal activity against Rhizoctonia solani assessed as level-2 black scurf infected potato Nicola progeny tubers using in-furrow application of 25% active ingredient containing compound under field trial conditions (reference value: 17.9%)
[11] = tested on: Rhizoctonia solani; experiment: Fungicidal activity against Rhizoctonia solani assessed as level-2 black scurf infected potato Nicola progeny tubers using 25% active ingredient containing compound treated potato seeds and in-furrow compound application under field trial conditions (reference value: 17.9%)
[12] = tested on: Rhizoctonia solani; experiment: Fungicidal activity against Rhizoctonia solani assessed as level-4 black scurf infected potato Nicola progeny tubers using 25% active ingredient containing compound treated potato seeds and in-furrow compound application under field trial conditions (reference value: 59.7%)

## O=C(Nc1ccccc1)N(Cc1ccc(Cl)cc1)C1CCCC1 [PENCYCURON]
[1]
  Activity: 8.1%
[2]
  Activity: 19.7%
[3]
  Activity: 1.4%
[4]
  Activity: 70.8%

## CO/C=C(\C(=O)OC)c1ccccc1Oc1cc(Oc2ccccc2C#N)ncn1 [Azoxystrobin]
[5]
  Activity: 69%
[6]
  Activity: 16.7%
[1]
  Activity: 0.01%
[2]
  Activity: 0.01%
[7]
  Activity: 0.01%
[8]
  Activity: 0.01%
[9]
  Activity: 0.01%
[10]
  Activity: 31%
[11]
  Activity: 83.3%
[3]
  Activity: 10%
[4]
  Activity: 90%
[12]
  Activity: 0.01%
